Measurements from patent US7311919B2, “Agents for treating osteoporosis and inhibiting osteoclast formation” (Simpson Biotech Co., Ltd., priority 2003, dated 2007).

System: osteoclasts
Experiment: Osteoclast formation in co-culture of myelocytes and osteoblasts (TRAP staining)
Type: cell-based
Details: 2 U/ml
Method: Myelocytes and osteoblasts were co-cultured in vitro and the numbers of osteoclasts formed were measured. Myelocytes will differentiate into osteoclasts expressing tartrate-resisted acidic phosphatase (TRAP) when vitamin D is present in the coculture. These osteoclasts could be identified by staining for TRAP. Therefore the development of osteoclasts could be assayed by co-culturing myelocytes with osteoblasts.
Osteoblasts and, myelocytes were co-cultured in 24-well plate. PTH (100 ng/ml), 1α, 25 (OH)2VD3 (10^−8 M), water extraction of the mycelium of C. Sinensis 3 mg/ml, 300 μg/ml, 30 μg/ml, 3 μg/ml or Elcatonin 2 U/ml were added. Samples were numbered No. 1˜No. 6. Each sample was cultured in 4 wells. Culture was maintained for 6 days with medium changed every two days.
After coculturing, TRAP-positive cells were stained to dark red color. The numbers of TRAP-positive osteoclasts that have more than 3 nucleuses were counted. The average numbers of osteoclasts from 4 samples were the number of osteoclasts.
The numbers of osteoclasts in the 1α, 25 (OH)2D3 sample was considered 100%. The percentage of osteoclasts formed of experimental group was calculated using formula 1. Student's t-test was used to examine the significance.
The formation of osteoclasts (%) osteoclast cell numbers/osteoclast cell numbers in medium with 1α,25(OH)2D3×100 (formula 1)

Elcatonin
Formation of osteoclasts (%) (1α,25(OH)2D3 sample = 100%): 13.8%
Average Osteoclast cell numbers (n = 4) (6 days co-culture): 113.0
